Measurements taken from patent US20260240166A1, “ANTIMICROBIAL AND ANTIVIRAL, BIOLOGICALLY ACTIVE POLYMER COMPOSITES EFFECTIVE AGAINST SARS-COV-2 AND OTHER VIRAL, BACTERIAL AND FUNGAL TARGETS, AND RELATED METHODS, MATERIALS, COATINGS AND DEVICES” (priority 2019, published 2026).

Assay: Thermogravimetric analysis (thermal stability)
Format: physicochemical
Conditions: thermogravimetric profile (FIG. 6)

Substance: benzalkonium chloride
- temperature to which stable / at which decomposition begins (TGA): about 200 °C
